From patent US10562912B2 (C&C Research Laboratories, priority 2013, dated 2020) come the findings set out here.

What all share (assay type): cell-based
The test system of test [1] is NCI-H661. The test is described as follows: Cell growth inhibition assay, cell line NCI-H661. Particulars: Homo sapiens, NCI-H661 cells.
Test [2] has as its system HCC1500. The test is described as follows: Cell growth inhibition assay, cell line HCC1500. Particulars: HCC1500 cells.
The subject of test [3] is HCT116. The test is described as follows: Cell growth inhibition assay, colon cancer cell line HCT116. Particulars: Homo sapiens, HCT-116 colon cancer cell line. Here is the method:
(§1) The inhibitory effects of the compounds of the present invention against the growth of cancer cells were evaluated as shown below. The cancer cell lines including stomach cancer cell line (AGS), breast cancer cell lines (MDA-MB-231, MDA-MB-468, and BT-549), prostate cancer cell lines (LNCaP and DU-145), colon cancer cell line (HCT116), ovarian cancer cell line (SW626), liver cancer cell line (Hep3B), kidney cancer cell line (ACHN), lung cancer cell line (NCI-H23) and blood cancer cell lines (HEL92.1.7 and U266) were cultured under the protocol provided by each supplier. A medium supplemented with 10 ng/mL of IL-6 was used for LNCaP, a prostate cancer cell line, when treated with a drug. Each type of cells to be used in experiments were sub-cultured in a 96-well plate by counting the exact number of cells using Tali™ Image-based Cytometer (Life Technologies). In a 96-well plate, AGS, HCT116, and DU-145 were employed with 3,000 cells/well; NCI-H23, SW626, Hep3B, ACHN, BT-549, MDA-MB-231, HEL92.1.7, and U266 were employed with 5,000 cells/well; and LNCaP and MDA-MB-468 were employed with 10,000 cells/well. The cells were treated with the compounds listed in Examples which were diluted in various concentrations. Upon completion of the compounds treatment, AGS, HCT116, SW626, DU145, NCI-H23, Hep3B, ACHN, BT-549, LNCaP, HEL92.1.7, and U266 cells were cultured at 37° C. under 5% CO2 for from 72 to 96 hours, and MDA-MB-231 and MDA-MB-468 cells were cultured at 37° C. in air for from 72 to 96 hours. Subsequently, the cells were observed under microscope and drug precipitation and particular findings were investigated and recorded. And then, the 96-well plate was placed at room temperature for 30 minutes, added with 20 μL/well of CellTiter-Glo solution (Cat No. G7573, Promega) and shaken for 10 minutes, followed by being subjected to the measurement using PHERAstar™ microplate reader (BMG LABTECH) according to the supplier's general luminometer protocol. […]

In test [4] the test system is IM-9. The test is described as follows: Cell growth inhibition assay, cell line IM-9. Particulars: Homo sapiens, IM-9 cells.
Test [5] has as its system ACHN. The experiment in a line: Cell growth inhibition assay, kidney cancer cell line ACHN. Particulars: Homo sapiens. Here is the method: as §1
For test [6], the system named is DU-145. The experiment in a line: Cell growth inhibition assay, prostate cancer cell line DU-145. The note with it: Homo sapiens, DU-145 prostate cancer cell line. A digest of the protocol:
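Viability by CellTiter-Glo luminescence after 72–96 h of compound dosing at 37° C. under 5% CO2; DU-145 and HCT116 seeded at 3,000 cells/well, SW626 at 5,000 cells/well.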

The test system of test [7] is SW1417. The experiment in a line: Cell growth inhibition assay, cell line SW1417. The note with it: Homo sapiens, SW1417 cells.
The test system of test [8] is MDA-MB-231. The test is described as follows: Cell growth inhibition assay, breast cancer cell line MDA-MB-231. The note with it: Homo sapiens; MDA-MB-231 breast cancer cell line, 5,000 cells/well.
Test [9] concerns NCI-H508. The experiment in a line: Cell growth inhibition assay, cell line NCI-H508. Particulars: Homo sapiens, NCI-H508 cells.
In test [10] the test system is BT-549. The test is described as follows: Cell growth inhibition assay, breast cancer cell line BT-549. Particulars: Homo sapiens, BT-549 breast cancer cell line. Here is the method: (§2) The inhibitory effects of the compounds of the present invention against the growth of cancer cells were evaluated as shown below. The cancer cell lines including stomach cancer cell line (AGS), breast cancer cell lines (MDA-MB-231, MDA-MB-468, and BT-549), prostate cancer cell lines (LNCaP and DU-145), colon cancer cell line (HCT116), ovarian cancer cell line (SW626), liver cancer cell line (Hep3B), kidney cancer cell line (ACHN), lung cancer cell line (NCI-H23) and blood cancer cell lines (HEL92.1.7 and U266) were cultured under the protocol provided by each supplier. A medium supplemented with 10 ng/mL of IL-6 was used for LNCaP, a prostate cancer cell line, when treated with a drug. Each type of cells to be used in experiments were sub-cultured in a 96-well plate by counting the exact number of cells using Tali™ Image-based Cytometer (Life Technologies). In a 96-well plate, AGS, HCT116, and DU-145 were employed with 3,000 cells/well; NCI-H23, SW626, Hep3B, ACHN, BT-549, MDA-MB-231, HEL92.1.7, and U266 were employed with 5,000 cells/well; and LNCaP and MDA-MB-468 were employed with 10,000 cells/well. The cells were treated with the compounds listed in Examples which were diluted in various concentrations. Upon completion of the compounds treatment, AGS, HCT116, SW626, DU145, NCI-H23, Hep3B, ACHN, BT-549, LNCaP, HEL92.1.7, and U266 cells were cultured at 37° C. under 5% CO2 for from 72 to 96 hours, and MDA-MB-231 and MDA-MB-468 cells were cultured at 37° C. in air for from 72 to 96 hours. Subsequently, the cells were observed under microscope and drug precipitation and particular findings were investigated and recorded. And then, the 96-well plate was placed at room temperature for 30 minutes, added with 20 μL/well of CellTiter-Glo solution (Cat No. G7573, Promega) and shaken for 10 minutes, followed by being subjected to the measurement using PHERAstar™ microplate reader (BMG LABTECH) according to the supplier's general luminometer protocol. Wells where only culture liquid added without cell plating were used as a negative control, whereas wells where culture liquid containing 0.1% DMSO instead of the compounds listed in Examples were used as a positive control.

Test [11] concerns C-33A. The test is described as follows: Cell growth inhibition assay, cell line C-33A. Particulars: Homo sapiens, C-33A cells.
Test [12] deals with NCI-H23. The test is described as follows: Cell growth inhibition assay, lung cancer cell line NCI-H23. The note with it: Homo sapiens. Here is the method:
as §1

Test [13] concerns MDA-MB-468. The test is described as follows: Cell growth inhibition assay, breast cancer cell line MDA-MB-468. Particulars: Homo sapiens, MDA-MB-468 breast cancer cell line. Here is the method:
as §2

In test [14] the test system is NCI-H1650. The experiment in a line: Cell growth inhibition assay, cell line NCI-H1650. The note with it: Homo sapiens, NCI-H1650 cells.
The test system of test [15] is Raji. The experiment in a line: Cell growth inhibition assay, cell line Raji. The note with it: Homo sapiens, Raji cells.
For test [16], the system named is Hep3B. The experiment in a line: Cell growth inhibition assay, liver cancer cell line Hep3B. The note with it: Homo sapiens. Here is the method:
as §2

For test [17], the target named is T1, STAT3 (Homo sapiens, UniProt P40763).
T1 construct: plasmid pSTAT3-TA-luc), which contains a stably operating STAT3 promoter; endogenous in cells
T1 sequence (P40763 whole entry): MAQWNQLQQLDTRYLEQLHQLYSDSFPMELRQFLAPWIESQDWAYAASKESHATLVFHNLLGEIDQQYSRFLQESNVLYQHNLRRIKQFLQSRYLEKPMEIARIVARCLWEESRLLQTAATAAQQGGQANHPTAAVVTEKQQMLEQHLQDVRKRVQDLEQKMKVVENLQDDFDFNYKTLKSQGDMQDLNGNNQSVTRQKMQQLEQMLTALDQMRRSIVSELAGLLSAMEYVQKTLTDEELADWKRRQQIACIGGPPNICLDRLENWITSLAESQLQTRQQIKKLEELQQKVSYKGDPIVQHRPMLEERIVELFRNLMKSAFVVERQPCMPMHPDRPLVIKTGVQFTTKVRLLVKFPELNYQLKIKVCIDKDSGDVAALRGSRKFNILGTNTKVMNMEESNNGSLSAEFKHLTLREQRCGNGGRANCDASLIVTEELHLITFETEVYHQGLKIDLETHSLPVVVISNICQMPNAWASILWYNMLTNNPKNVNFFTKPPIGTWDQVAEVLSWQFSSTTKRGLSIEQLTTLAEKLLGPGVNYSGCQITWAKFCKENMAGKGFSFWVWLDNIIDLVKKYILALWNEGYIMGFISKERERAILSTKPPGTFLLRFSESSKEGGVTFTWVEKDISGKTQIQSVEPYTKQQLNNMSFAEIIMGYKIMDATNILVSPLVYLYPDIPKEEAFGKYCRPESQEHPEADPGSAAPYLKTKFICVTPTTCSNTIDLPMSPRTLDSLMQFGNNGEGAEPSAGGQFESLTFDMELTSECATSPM
The test is described as follows: STAT3 reporter gene assay (luciferase), LNCaP stable cell line (pSTAT3-TA-luc), IL-6 stimulation. The method, boiled down:
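LNCaP cells stably carrying pSTAT3-TA-luc, in RPMI1640 with 3% DCC-FBS, were treated with compound and then stimulated with 10 ng/mL IL-6 for 24–48 h at 37 °C. Luciferase activity was measured in lysates. A parallel plate measured viability by CellTiter-Glo, with stimulated 0.1% DMSO wells as the positive control.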

Test [18] concerns SW626. The test is described as follows: Cell growth inhibition assay, ovarian cancer cell line SW626. Particulars: Homo sapiens. Here is the method: as §1
Test [19] deals with HEL92.1.7. The experiment in a line: Cell growth inhibition assay, blood cancer cell line HEL92.1.7. The note with it: Homo sapiens, HEL 92.1.7, HEL92.1.7 blood cancer cell line. The method, boiled down: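 Cells were seeded at 3,000/well (HCT116, DU-145) or 5,000/well (SW626 and the others) and exposed to serial compound dilutions for 72 to 96 h at 37 °C under 5% CO2. Viability was read as CellTiter-Glo luminescence against 0.1% DMSO and cell-free wells.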

In test [20] the test system is MDA-MB-361. The test is described as follows: Cell growth inhibition assay, cell line MDA-MB-361. The note with it: Homo sapiens, MDA-MB-361 cells.
For test [21], the system named is LNCaP. The experiment in a line: Cell growth inhibition assay, prostate cancer cell line LNCaP (medium with 10 ng/mL IL-6). The note with it: Homo sapiens, medium supplemented with 10 ng/mL of IL-6, 10,000 cells/well.

In the case of `CN(c1ccc2cc(C(=O)Nc3cccc(-c4ccccc4C(F)(F)F)c3)[nH]c2c1)S(C)(=O)=O` [Example 346, 6-(N-methylmethylsulfonamido)-N-(2′-(trifluoromethyl)-[1,1′-biphenyl]-3-yl)-1H-indole-2-carboxamide], the IC50 in [1] is 0.09 µM; in test [2], 1.03 µM; in test [3], 1.5 µM; in [4], 0.51 µM; in test [5], 0.37 µM; in [6] it was 0.37 µM. For the same compound, the IC50 in [7] was 0.35 µM; in test [8], 0.18 µM; in test [9], 0.22 µM; in test [10], 1 µM; in test [11] it was 0.3 µM; in [12], 1.7 µM. Further, the IC50 in test [13] is 0.14 µM; in [14], 0.62 µM; in test [15] it was 0.57 µM; in test [16], 2.2 µM; in test [17], 0.2 µM; in test [18], 0.29 µM. Also, the results for the IC50 in [19], in test [20] and in [21] were 1.3 µM, 0.28 µM and 0.463 µM, respectively.
